Measured values as given in US6528535B2, “Bicyclic inhibitors of protein farnesyl transferase” (Warner-Lambert Company, priority 1997, dated 2003).
Structures can show the parent of a compound that is named as a salt.

Target: T1, SF9 affinity purified rat FPT (Rattus norvegicus, UniProt Q02293+Q04631)
T1 construct: made in house; host or cells: Sf9 insect cells
Experiment: PFT (farnesyl protein transferase) inhibitory activity, radiolabeled farnesyl pyrophosphate / biotinyl peptide bead assay
Assay type: biochemical
Settings: Examples 56-74, parallel synthesis array: single test; values adjusted to account for the purity of the sample; read-out: FTase, IC50
Procedure: The protein:farnesyl transferase (PFT) or farnesyl protein transferase (FPT) inhibitory activity of compounds of the present invention were assayed in HEPES buffer (pH 7.4) containing 5 mM potassium phosphate and 20 μM ZnCl2. The solution also contained 5 mM DTT (dithiothreitol), 5 mM MgCl2, and 0.1% PEG 8000. Assays were performed in 96 well plates (Wallec) and employed solutions composed of varying concentrations of a compound of the present invention in 10% DMSO (dimethylsulfoxide). Upon addition of both substrates, radiolabeled farnesyl pyrophosphate ([1^3H], specific activity 15-30 Ci/mmol, final concentration 134 nM) and (biotinyl)-Ahe-Thr-Lys-Cys-Val-Ile-Met ([3aS[3a alpha, 4 beta, 6a alpha]-hexahydro-2-oxo-1H-thieno[3,4-d]imidazole-5-pentanoic acid]-[7-aminoheptanoic acid]-Thr-Lys-Cys-Val-Ile-Met) (Ahe is 7-aminoheptanoic acid, Thr is threonine, Lys is lysine, Cys is cysteine, Val is valine, Ile is isoleucine, and Met is methionine) (final concentration 0.2 μM), the enzyme reaction was started by addition of SF9 affinity purified rat FPT. After incubation at 30° C. for 30 minutes, the reaction was terminated by diluting the reaction 2.5-fold with a stop buffer containing 1.5 M magnesium acetate, 0.2 M H3PO4, 0.5% BSA (bovine serum albumin), and strepavidin beads (Amersham) at a concentration of 1.3 mg/mL. After allowing the plate to settle for 30 minutes at room temperature, radioactivity was quantitated on a microbeta counter (Model 1450, Wallec). The assay was also carried out without 5 mM potassium phosphate.

Row | IC50 | Structure (SMILES)
1 | 360 nM | O=C1/C(=C/c2ccccc2Cl)CCc2cc(OCCn3ccnc3)ccc21 [Example 56, 2-[(E)-1-(2-Chlorophenyl)methylidene]-6-[2-(1H-1-imidazolyl)ethoxy]-1,2,3,4-tetrahydro-1-naphthalenone]

Same assay, conditions: average of two tests unless n is given in parentheses; read-out: FTase, IC50

Row | IC50 | Structure (SMILES)
2 | 2400 nM | O=C1C(=Cc2ccccn2)CCc2cc(OCCn3ccnc3)ccc21 [Example 3, 6-(2-Imidazole-1-yl-ethoxy)-2-pyridin-2-ylmethylene-3,4-dihydro-2H-naphthalen-1-one]
3 | 11900 nM | CCN(CC)CCOc1ccc(C=C2CCc3cc(OCCn4ccnc4)ccc3C2=O)cc1 [Example 8, 2-[4-(2-Diethylamino-ethoxy)-benzylidene]-6-(2-imidazole-1-yl-ethoxy)-3,4-dihydro-2H-naphthalen-1-one]
4 | 240 nM | O=C1C(=Cc2ccccc2)CCc2cc(OCCn3ccnc3)ccc21 [Example 9, 2-Benzylidene-6-(2-imidazole-1-yl-ethoxy)-3,4-dihydro-2H-naphthalen-1-one]
5 | 2500 nM | COc1ccccc1C=C1CCc2cc(OCCn3ccnc3)ccc2C1=O [Example 25, 6-(2-Imidazol-1-yl-ethoxy)-2-(2-methoxy-benzylidene)-3,4-dihydro-2H-naphthalen-1-one]
6 | 7300 nM | NC(=O)c1ccc(C=C2CCc3cc(OCCc4c[nH]cn4)ccc3C2=O)cc1 [Example 33, 4-{6-[2-(1H-Imidazole-4-yl)-ethoxy]-1-oxo-3,4-dihydro-1H-naphthalen-2-ylidenemethyl}-benzamide, monohydrochloride]
7 | 2000 nM | O=C(O)c1ccc(C=C2CCc3cc(OCCc4c[nH]cn4)ccc3C2=O)cc1 [Example 35, 4-{6-[2-(1H-Imidazole-4-yl)-ethoxy]-1-oxo-3,4-dihydro-1H-naphthalen-2-ylidenemethyl}-benzoic acid, ditrifluoroacetate]

More lines, now with the values behind:

Row | Structure (SMILES) | IC50
8 | O=C1CCCc2cc(OCCn3ccnc3)ccc21 [Example 1, 6-(2-Imidazole-1-yl-ethoxy)-3,4-dihydro-2H-naphthalen-1-one] | 2000 nM
9 | Cc1nccn1CCOc1ccc2c(c1)CCCC2=O [Example 2, 6-[2-(2-Methyl-imidazole-1-yl)-ethoxy]-3,4-dihydro-2H-naphthalen-1-one] | 8400 nM
10 | O=C1CCCc2cc(OCCc3c[nH]cn3)ccc21 [Example 27, 6-[2-(1H-Imidazole4-yl)-ethoxy]-3,4-dihydro-2H-naphthalen-1-one, monohydrochloride] | 1790 nM
11 | O=C1C(=Cc2ccc(Cl)s2)CCc2cc(OCCc3c[nH]cn3)ccc21 [Example 36, 2-(5-Chloro-thiophen-2-ylmethylene)-6-[2-(1H-imidazole-4-yl)-ethoxy]-3,4-dihydro-2H-naphthalen-1-one, hydrochloride] | 3500 nM
12 | O=C(O)c1ccc(C=C2CCc3cc(OCCc4c[nH]cn4)ccc3C2=O)s1 [Example 38, 5-{6-[2-(1H-Imidazol-4-yl)-ethoxy]-1-oxo-3,4-dihydro-1H-naphthalen-2-ylidenemethyl}-thiophene-2-carboxylic acid] | 4300 nM
13 | CC(=C1CCc2cc(OCCc3c[nH]cn3)ccc2C1=O)c1ccccc1 [Example 40, 6-[2-(1H-Imidazole-4-yl)-ethoxy]-2-(1-phenyl-ethylidene)-3,4-dihydro-2H-naphthalen-1-one] | 4700 nM
14 | O=C1/C(=C/C2CCCCC2)CCc2cc(OCCn3ccnc3)ccc21 [Example 45, 2-[(E)-1-Cyclohexylmethylidene]-6-[2-(1H-1-imidazolyl)ethoxy]-1,2,3,4-tetrahydro-1-naphthalenone, hydrochloride] | 5800 nM
15 | O=C1/C(=C/c2cccs2)COc2cc(OCCn3ccnc3)ccc21 [Example 52, 7-[2-(1H-1-Imidazolyl)ethoxy]-3-[(E)-1-(2-thienyl)methylidene]4-chromanone] | 220 nM
16 | CC(C)(CNC(=O)CON=C1CCCc2cc(OCCn3ccnc3)ccc21)c1ccccc1 [Example 55, 2-[6-(2-Imidazol-1-yl-ethoxy)-3,4-dihydro-2H-naphthalen-1-ylideneaminooxy]-N-(2-methyl-2-phenyl-propyl)-acetamide] | 600 nM
